Source: patent US11179348B2, “Combination comprising pterostilbene for the treatment of cancer” (FUNDACIÓN UNIVERSIDAD CATÓLICA DE VALENCIA SAN VICENTE …, priority 2015, dated 2021)

Experiments:
[1] = system: ACTH; assay: Plasma ACTH levels (ELISA) in tumor-bearing mice; assay type: in vivo
Excerpt: (§1) Measurement of ACTH, Corticosterone, and NORA Levels.
(§2) Plasma levels of ACTH (Calbiotech, Inc., Spring Valley, Calif.), corticosterone (Kamiyama Biomedical Co., Seattle, Wash.), and NORA (IBL, Hamburg, Germany) were quantified by ELISA according to the instructions of the suppliers.

[2] = system: corticosterone; assay: Plasma corticosterone levels (ELISA) in tumor-bearing mice; assay type: in vivo
Excerpt: as §1, §2

[3] = system: MDA-MB-231 cells; assay: GSH levels and glutathione- and oxidative stress-related enzyme activities in MDA-MB-231 cells growing in vivo; design: species or system human; conditions: MDA-MB-231, in vivo Pter, day 35
Procedure: To measure enzyme activity, isolated tumor cells were homogenized in 0.1 M phosphate buffer (pH 7.2) at 4° C. GCL and GSS activities were measured as described previously (Obrador, E. et al. Hepatology 35, 74-81 (2002)). GPX (selenium dependent) activity was measured as described by Flohé and Gunzler (Flohe, L. & Gunzler, W. A. Methods Enzymol 105, 114-121 (1984)) using H2O2 as a substrate. GSR activity was determined as described by Akerboom and Sies (Akerboom, T. P. et al, Bull Eur Physiopathol Respir 17 Suppl, 221-227 (1981)). GGT activity was measured as described previously (Obrador, E. et al. Hepatology 35, 74-81 (2002)). GST activity was measured using an assay kit from Sigma. TXNRD activity, defined by the concentration of sodium-lipoate (disulfide) reduced to dehydrolipoate (dithiol) per milligram protein, was measured as previously described (Javvadi, P. et al. Cancer Res 70, 1941-1950 (2010)). SOD activity was measured as described by Flohé and Otting (Flohe, L. & Otting, F. Methods Enzymol 105, 93-104 (1984).) using 2 mM cyanide in the assay medium to distinguish mangano-type enzyme (SOD2) from the cuprozinc type (SOD1). CAT activity was analyzed as described by Aebi (Aebi, H. Methods Enzymol 105, 121-126 (1984)). NOX activity was measured by chemiluminescence following the methodology of Wind et al. (Wind, S. et al. Comparative pharmacology of chemically distinct NADPH oxidase inhibitors. Br J Pharmacol 161, 885-898 (2010)). Protein concentration was determined with the Pierce BCA protein assay (Fisher Scientific, Waltham, Mass.).
GSH, GSSG, NADP^+ and NADPH Determination.
GSH and GSSG were determined, following procedures previously described (Obrador, E. et al. PLoS One 9, e96466 (2014)), by LC/MS using the same equipment described above for pterostilbene determination. Cell processing was performed according to published methodology, where rapid N-ethylmaleimide derivatization was used to prevent GSH auto-oxidation (Asensi, M. et al. Anal Biochem 217, 323-328 (1994)). NADP^+ and NADPH were quantitated using an assay kit from Sigma (St. Louis, Mo.).
Isolation of Tumor Cells from Mouse Xenografts Using Enzymatic Digestion and a double Ficoll gradient.
To maximize the amount of isolated cells, avoiding the use of RFP-transfected cells and subsequent laser microdissection, an alternative methodology was set up. To maximize cell yield and viability the following combination of enzymes was used: collagenase III (200 U/ml; Sigma-Aldrich), DNase I (200 U/ml; Sigma-Aldrich) and trypsin (5 mg/ml; Invitrogen), and a non-enzymatic dissociation buffer (NEDB, Invitrogen). Briefly, mice were killed, and tumors were removed (avoiding skin, muscle and fat) into cold culture media and processed immediately. The tumors were minced into 1-3 mm fragments, which were then incubated with the dissociation solution (see above) for 30 min at 37° C. The tumor fragments were mixed up and down every 10 min using a […] micropipette with a tip cut to a diameter adapted to tissue fragment size. After each incubation period, the fragments were filtered through a […] nylon mesh cell strainer (BD Biosciences, San Diego, Calif., USA). The released cells were centrifuged at 1200 r.p.m. for 2 min and stored in cold CO2-independent medium with 30% FCS at […]. Fresh dissociation solution was added to the remaining tissue fragments for 30 min. Dissociation was stopped when no additional cells were released. The fragments were pushed through a sieve and all cells from all incubation periods were pooled and counted.
The dissociated cells were layered onto a double Ficoll gradient (Histopaque; Sigma-Aldrich; densities 1.077 and 1.119) and spun at 700 g for 30 min at room temperature. Cells removed from both interfaces were pooled and washed two times in CO2-independent medium and stored at 4° C. Debris and red blood cell elimination was improved with the dual-density gradient. […]

Compound: COc1cc(/C=C/c2ccc(O)cc2)cc(OC)c1 [Pter, trans-3,5-dimethoxy-4′-hydroxystilbene]
- ACTH ([1]; A549-bearing mice, day 35, 6 h circadian time): 79 ± 19 pg/mL plasma
- ACTH ([1]; AsPC-1-bearing mice, day 28, 6 h circadian time): 112 ± 31 pg/mL plasma
- ACTH ([1]; BxPC-3-bearing mice, day 35, 6 h circadian time): 68 ± 11 pg/mL plasma
- ACTH ([1]; Caco-2-bearing mice, day 28, 6 h circadian time): 35 ± 15 pg/mL plasma
- ACTH ([1]; HT-29-bearing mice, day 21, 6 h circadian time): 44 ± 16 pg/mL plasma
- ACTH ([1]; HepG2-bearing mice, day 35, 6 h circadian time): 116 ± 25 pg/mL plasma
- ACTH ([1]; LNCaP-bearing mice, day 49, 6 h circadian time): 49 ± 15 pg/mL plasma
- ACTH ([1]; MCF-7-bearing mice, day 28, 6 h circadian time): 44 ± 9 pg/mL plasma
- ACTH ([1]; MDA-MB-231-bearing mice, day 35, 6 h circadian time): 65 ± 17 pg/mL plasma
- ACTH ([1]; PC-3-bearing mice, day 21, 6 h circadian time): 102 ± 30 pg/mL plasma
- ACTH ([1]; SK-OV-3-bearing mice, day 49, 6 h circadian time): 63 ± 19 pg/mL plasma
- ACTH levels in plasma ([1]; melanoma-bearing mice, pterostilbene treatment (FIG. 2B)): decreased
- CRC ([2]; A549-bearing mice, day 35, 12 h circadian time): 61 ± 17 ng/mL plasma
- CRC ([2]; A2058-bearing mice, day 35, 12 h circadian time): 123 ± 29 ng/mL plasma
- CRC ([2]; AsPC-1-bearing mice, day 28, 12 h circadian time): 217 ± 33 ng/mL plasma
- CRC ([2]; B16-F1-bearing mice, day 15, 12 h circadian time): 187 ± 36 ng/mL plasma
- CRC ([2]; BxPC-3-bearing mice, day 35, 12 h circadian time): 88 ± 21 ng/mL plasma
- CRC ([2]; Caco-2-bearing mice, day 28, 12 h circadian time): 106 ± 23 ng/mL plasma
- CRC ([2]; HT-29-bearing mice, day 21, 12 h circadian time): 126 ± 36 ng/mL plasma
- CRC ([2]; HepG2-bearing mice, day 35, 12 h circadian time): 187 ± 50 ng/mL plasma
- CRC ([2]; LNCaP-bearing mice, day 49, 12 h circadian time): 77 ± 15 ng/mL plasma
- CRC ([2]; MCF-7-bearing mice, day 28, 12 h circadian time): 75 ± 20 ng/mL plasma
- CRC ([2]; MDA-MB-231-bearing mice, day 35, 12 h circadian time): 84 ± 24 ng/mL plasma
- CRC ([2]; MeWo-bearing mice, day 35, 12 h circadian time): 87 ± 17 ng/mL plasma
- CRC ([2]; MelJuso-bearing mice, day 35, 12 h circadian time): 80 ± 15 ng/mL plasma
- CRC ([2]; PC-3-bearing mice, day 21, 12 h circadian time): 145 ± 30 ng/mL plasma
- CRC ([2]; SK-OV-3-bearing mice, day 49, 12 h circadian time): 64 ± 18 ng/mL plasma
- corticosterone in plasma ([2]; melanoma-bearing mice, pterostilbene 30 mg/kg every 48 h (FIG. 2A)): to practically control values
- CAT [3]: 0.6 ± 0.2 mU/10^6 cells
- GCL [3]: 66 ± 18 mU/10^6 cells
- GSH [3]: 11.5 ± 2.0 nmol/10^6 cells
- GSS [3]: 7.7 ± 1.2 mU/10^6 cells
- GSSG [3]: 0.2 ± 0.05 nmol/10^6 cells
- SOD1 [3]: 0.3 ± 0.08 U/10^6 cells
- SOD2 [3]: 0.03 ± 0.01 U/10^6 cells
